Results from US8354403B2, “Pyrrolidine derived beta 3 adrenergic receptor agonists” (Merck Sharp & Dohme Corp., priority 2009, dated 2013).
pEC50: −log10 of the molar value. Read-outs that look alike come from different tables or passages of the source. Blank lines part the entries; values can stand above or below the compound they belong to.

Biological target: T1, human β3 adrenergic receptor (Homo sapiens, UniProt P13945)
T1 construct: expressed in transfected cells; host or cells: Chinese hamster ovary (CHO) cells, stably transfected
T1 sequence (P13945 whole entry): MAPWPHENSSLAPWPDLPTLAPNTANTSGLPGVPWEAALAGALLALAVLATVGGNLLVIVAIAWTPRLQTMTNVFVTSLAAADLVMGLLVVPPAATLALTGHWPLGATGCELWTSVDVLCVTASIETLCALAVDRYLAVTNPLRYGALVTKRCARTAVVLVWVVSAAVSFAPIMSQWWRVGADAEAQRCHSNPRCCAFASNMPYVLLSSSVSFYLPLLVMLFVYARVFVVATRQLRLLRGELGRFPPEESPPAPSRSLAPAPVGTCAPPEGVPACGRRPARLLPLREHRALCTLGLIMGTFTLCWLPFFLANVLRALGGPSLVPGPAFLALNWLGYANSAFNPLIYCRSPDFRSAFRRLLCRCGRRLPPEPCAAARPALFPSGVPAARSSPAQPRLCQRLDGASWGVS
Assay: Beta-3 agonist in vitro functional assay: cAMP production (LANCE TR-FRET) in CHO cells stably transfected with the cloned β3 receptor
Assay type: cell-based
Procedure, shortened: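 CHO cells stably expressing the cloned receptor, in HEPES-buffered HBSS with BSA and 0.6 mM IBMX, 6,000 cells/well, exposed to compound for 30 min at RT. cAMP read by LANCE TR-FRET against a cAMP standard curve. Isoproterenol defines maximal stimulation.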

[1] = given as a range, cAMP, CHO cells, read-out: human β3 functional activity
[2] = Table 8, Beta-3 agonist in vitro functional assay, read-out: Human β3 agonist functional activity
[3] = Table 12, human β3 functional activity given as ranges, read-out: Human β3 agonist functional activity
[4] = Table 5, cAMP, CHO cells, read-out: Human β3 agonist functional activity
[5] = Table 4, cAMP, CHO cells, read-out: Human β3 agonist functional activity
[6] = Table 9, Beta-3 agonist in vitro functional assay, read-out: Human β3 agonist functional activity

Structure (SMILES): O=C(c1ccc(C[C@@H]2CC[C@H]([C@H](O)c3ccccc3)N2)cc1)N1CCC2(CC1)CC(C1CC1)OC2=O (single isomer, unassigned) [Ex. 553]
pEC50 [1]: 8.00 to 9.00

Structure (SMILES): O=C(c1ccc(C[C@@H]2CC[C@H]([C@H](O)c3ccccc3)N2)cc1)N1CCC2(CCCN2)CC1 [Example 305]
pEC50 [2]: 6.00 to 7.00

Structure (SMILES): O=C(c1ccc(CC2CCC(C(O)c3ccccc3)N2)cc1)N1CCN(C(c2ccccn2)C2CC2)CC1 (single isomer, unassigned) [Example 590]
pEC50 [3]: 8.00 to 9.00

Structure (SMILES): O=C(c1ccc(C[C@@H]2CC[C@H]([C@H](O)c3ccccc3)N2)cc1)N1CCC(Cc2ccccc2F)CC1 [Example 144]
pEC50 [4]: 7.00 to 8.00

Structure (SMILES): O=C1C=C(c2ccccc2)C2(CCN(C(=O)c3ccc(C[C@@H]4CC[C@H]([C@H](O)c5ccccc5)N4)cc3)CC2)O1 [Example 281]
pEC50 [2]: 8.00 to 9.00

Structure (SMILES): CC(C)(C)C1CC2(CCN(C(=O)c3ccc(CC4CCC(C(O)c5ccccc5)N4)cc3)CC2)C(=O)O1 (single isomer, unassigned) [Example 569]
pEC50 [3]: 8.00 to 9.00

Structure (SMILES): CC1(Cc2ccc(F)cc2)CC2(CCN(C(=O)c3ccc(C[C@@H]4CC[C@H]([C@H](O)c5ccccc5)N4)cc3)CC2)OC1=O (stereo partly shown) [Example 278]
pEC50 [2]: > 9.00

Structure (SMILES): CC(C(=O)N1CC(F)C1)N1CCN(C(=O)c2ccc(C[C@@H]3CC[C@H]([C@H](O)c4ccccc4)N3)cc2)CC1 (stereo partly shown) [Example 472]
pEC50 (Table 10, Beta-3 agonist in vitro functional assay, read-out: Human β3 agonist functional activity): 8.00 to 9.00

Structure (SMILES): O=C(c1ccc(C[C@@H]2CC[C@H]([C@H](O)c3ccccc3)N2)cc1)N1CCC2(CC1)CCN(Cc1ccccc1)C2=O [Example 255]
pEC50 [2]: 8.00 to 9.00

Structure (SMILES): CC1(C)CC2(CCN(C(=O)c3ccc(C[C@@H]4CC[C@H]([C@H](O)c5cccnc5)N4)cc3)CC2)C(=O)O1 [Example 294]
pEC50 [2]: 8.00 to 9.00

Structure (SMILES): O=C1Nc2ncccc2C2(CCN(C(=O)c3ccc(C[C@@H]4CC[C@H]([C@H](O)c5ccccc5)N4)cc3)CC2)O1 [Example 330]
pEC50 [2]: 7.00 to 8.00

Structure (SMILES): CCOC(=O)C1(F)CCCN(C(=O)c2ccc(C[C@@H]3CC[C@H]([C@H](O)c4ccccc4)N3)cc2)C1 (stereo partly shown) [Example 37]
pEC50 [5]: 6.00 to 7.00

Structure (SMILES): O=C(c1ccc(C[C@@H]2CC[C@H]([C@H](O)c3ccccc3)N2)cc1)N1CCC(COc2cnccn2)CC1 [Example 161]
pEC50 [4]: 7.00 to 8.00

Structure (SMILES): O=C(c1ccc(CC2CCC(C(O)c3ccccc3)N2)cc1)N1CCC2(CC1)CC(C1CC1)OC2=O (single isomer, unassigned) [Ex. 554]
pEC50 [1]: 8.00 to 9.00

Second part, the compound after the results:

pEC50 [2]: 6.00 to 7.00
Structure (SMILES): O=C1NCC2(CCN(C(=O)c3ccc(C[C@@H]4CC[C@H]([C@H](O)c5ccccc5)N4)cc3)CC2)O1 [Example 272]

pEC50 [5]: 6.00 to 7.00
Structure (SMILES): O=C(c1ccc(C[C@@H]2CC[C@H]([C@H](O)c3ccccc3)N2)cc1)N1CC(Oc2cncc(Cl)n2)C1 [Example 3]

pEC50 [3]: 8.00 to 9.00
Structure (SMILES): O=C(c1ccc(CC2CCC(C(O)c3ccccc3)N2)cc1)N1CCN(C2CCc3cccnc32)CC1 (single isomer, unassigned) [Example 597]

pEC50 [5]: 6.00 to 7.00
Structure (SMILES): Cc1nc2c(s1)CCN(C(=O)c1ccc(C[C@@H]3CC[C@H]([C@H](O)c4ccccc4)N3)cc1)C2 [Example 52]

pEC50 [5]: 6.00 to 7.00
Structure (SMILES): CN(C)C1CCN(C(=O)c2ccc(C[C@@H]3CC[C@H]([C@H](O)c4ccccc4)N3)cc2)C1 (stereo partly shown) [Example 9]

pEC50 [4]: 6.00 to 7.00
Structure (SMILES): O=C(c1ccc(C[C@@H]2CC[C@H]([C@H](O)c3ccccc3)N2)cc1)N1CCC(n2ccccc2=O)CC1 [Example 70]

pEC50 [4]: 7.00 to 8.00
Structure (SMILES): CC(C1CCN(C(=O)c2ccc(C[C@@H]3CC[C@H]([C@H](O)c4ccccc4)N3)cc2)CC1)n1ncccc1=O (stereo partly shown) [Example 165]

pEC50 [6]: 6.00 to 7.00
Structure (SMILES): O=C(c1ccc(C[C@@H]2CC[C@H]([C@H](O)c3ccccc3)N2)cc1)N1CCN(c2ncccc2F)CC1 [Example 357]

pEC50 [6]: 7.00 to 8.00
Structure (SMILES): Cn1nnnc1CN1CCN(C(=O)c2ccc(C[C@@H]3CC[C@H]([C@H](O)c4ccccc4)N3)cc2)CC1 [Example 399]

pEC50 [5]: 6.00 to 7.00
Structure (SMILES): Cn1ncc2c1CN(C(=O)c1ccc(C[C@@H]3CC[C@H]([C@H](O)c4ccccc4)N3)cc1)C2 [Example 28]

pEC50 [3]: 7.00 to 8.00
Structure (SMILES): CC(c1ncccn1)N1CCN(C(=O)c2ccc(CC3CCC(C(O)c4ccccc4)N3)cc2)CC1 (single isomer, unassigned) [Example 596]
